Reference: patent US20260374739A1, “SMALL MOLECULAR WEIGHT CHEMICAL COMPOUND TO ANTAGONIZE EPH-EPHRIN TETRAMERIZATION AND INHIBIT BIDIRECTIONAL SIGNALING” (THE BOARD OF REGENTS OF THE UNIVERSITY OF TEXAS SYSTEM, priority 2022, published 2026)
“Also recorded” adds a separate entry of the source.

Columns and labels:
EphB1-Fc / EB2-His = target: T1, EphB1-Fc / EB2-His (Rattus norvegicus, UniProt P09759); assay: pulldown EB2-His to EphB1-Fc; format: binding, mouse EB2; details: 50 and 250 μM for A20; listed as A20
T1 construct: mouse (Mus musculus) EB2-His ectodomain, pulldown
T1 sequence (P09759 18-538): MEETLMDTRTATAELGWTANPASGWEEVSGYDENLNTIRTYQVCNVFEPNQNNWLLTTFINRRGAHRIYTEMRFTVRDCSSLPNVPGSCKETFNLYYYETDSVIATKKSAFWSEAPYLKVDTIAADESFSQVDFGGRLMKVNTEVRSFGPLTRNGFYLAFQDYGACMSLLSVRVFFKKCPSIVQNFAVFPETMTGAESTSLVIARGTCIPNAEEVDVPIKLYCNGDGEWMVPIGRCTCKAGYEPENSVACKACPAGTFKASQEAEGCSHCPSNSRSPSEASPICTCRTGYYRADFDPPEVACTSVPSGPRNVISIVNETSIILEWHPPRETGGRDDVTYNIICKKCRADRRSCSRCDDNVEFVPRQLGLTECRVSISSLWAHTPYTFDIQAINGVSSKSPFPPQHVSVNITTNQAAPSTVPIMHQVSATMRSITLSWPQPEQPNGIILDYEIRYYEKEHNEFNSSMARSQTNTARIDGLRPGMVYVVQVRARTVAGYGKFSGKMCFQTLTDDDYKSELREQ
From the text: A20, E13, and other compounds from the top 32 hits were then characterized in pulldown assays. EphB1-Fc was immobilized onto Protein A agarose beads, then mixed with compounds and the soluble EB2-His ectodomain for 1 hr at RT, after which protein complexes were washed and then bound EB2 was detected by immunoblot using anti-His antibodies.

[1] = system: DH neurons in the spinal cord; assay: dorsal horn neuron activation (Trap2/Ai9) after CFA; format: in vivo, mouse; details: listed as A20
Protocol: FIG. 65 depicts development of a quantitative fluorescent method to assess the activation of DH neurons in the spinal cord following a chronic, […]. The left hind paws of EphB1+/+ wild-type, EphB1+/− heterozygous, and EphB1−/− homozygous mutant mice that also contained the Trap2/CreERT2 driver and the Ai9/tdTomato reporter were injected once with CFA to induce inflammatory pain. Four hours later, mice were then injected IP with 4-hydroxy-tamoxifen (4-OHT, 40 mg/kg in sunflower seed oil) to activate Cre recombinase and permanently label with red fluorescence the neurons that were activated during the short window of time (~8 hr) until the 4-OHT is degraded. Fourteen days later, animals were perfused with 4% paraformaldehyde dissolved in PBS and then […] thick vibratome serial sections of the lumbar spinal cord were obtained, mounted, and viewed under fluorescence microscopy to identify red labeled neurons in the superficial dorsal horn of the spinal cords that were activated between ~4-12 hr after the CFA induction of inflammatory pain. Superficial red neurons were counted on the left (injured) and right (uninjured) side dorsal horns (boxed areas) from 8-12 serial sections along the span of lumbar cord of each animal. […]

EphrinB3-EphB2 = EphrinB3-EphB2 (Homo sapiens, UniProt P29323); assay: Octet, immobilized human EphrinB3 binding to human EphB2
Chain of EphrinB3-EphB2 (P29323 19-543 limits assumed): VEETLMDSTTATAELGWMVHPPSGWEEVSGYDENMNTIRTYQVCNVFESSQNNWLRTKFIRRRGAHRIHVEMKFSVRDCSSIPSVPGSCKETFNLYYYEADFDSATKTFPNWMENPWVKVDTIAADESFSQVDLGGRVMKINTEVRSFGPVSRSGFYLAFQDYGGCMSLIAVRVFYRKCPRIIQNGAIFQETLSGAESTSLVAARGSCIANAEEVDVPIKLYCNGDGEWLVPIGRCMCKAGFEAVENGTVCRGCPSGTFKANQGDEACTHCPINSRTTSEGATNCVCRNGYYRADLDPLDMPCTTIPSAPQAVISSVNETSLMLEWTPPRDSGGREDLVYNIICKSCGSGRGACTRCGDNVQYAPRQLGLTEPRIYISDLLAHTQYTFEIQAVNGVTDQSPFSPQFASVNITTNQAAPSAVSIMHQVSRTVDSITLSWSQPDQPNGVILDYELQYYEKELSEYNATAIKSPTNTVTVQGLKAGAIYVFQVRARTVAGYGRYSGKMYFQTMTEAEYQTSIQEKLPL
Protocol: Studies were conducted to confirm that A20 chemicals can effectively target the human Eph/Ephrin proteins. Octet system was used to first characterize the biophysical interactions of the human B class Eph and Ephrin proteins, and then was tested to assess how A20 may disrupt the interactions. Since the human and rodent proteins are highly conserved, and essentially identical, with EphB2 sharing 99.5% identity between human and mouse, with only 5 of ~1,000 amino acids different, any species-specific differences were not anticipated. Therefore, commercially available human EphrinB1-Fc (EB1), EphrinB2-Fc (EB2), and EphrinB3-Fc (EB3) ectodomain proteins were sparsely immobilized onto biosensors and then exposed to 50 nM of soluble human EphB1-His, EphB2-His, and EphB4-His ectodomains for 800 sec association and 1,000 sec dissociation steps with a total of nine different interactions analyzed. In the absence of A20 chemical, the immobilized human EphrinB proteins bound to their appropriate human EphB target proteins; with EphrinB1 only bound EphB1 and EphB2, EphrinB2 bound all three EphB1, EphB2, and EphB4, and EphrinB3 only bound EphB1 and EphB2 (FIG. 19A-19B).
Addition of compound also altered dissociation kinetics. […] This is referred to as the “unsurmountable” component of the Eph-Ephrin interaction (FIG. 21C). Additionally, AUC data was graphed for these runs (FIG. 21D). […]

[2] = system: normal human dermal fibroblast (NHDF) cells; assay: MTT cytotoxicity; format: cell-based; details: up to 10 μM, 48 hr
Protocol: Potential cytotoxicity of A20 was evaluated using MTT assay performed after culturing normal human dermal fibroblast (NHDF) cells with increasing concentrations of A20 for 48 hr.

`Oc1c(Br)cc(CN2CCOCC2)c2cccnc12` [Compound 5, 7-bromo-5-(morpholinomethyl)quinolin-8-ol] was tested, and the “pulldown EB2-His binding to EphB1-Fc” value (EphB1-Fc / EB2-His) was “strongly reduced EB2-His binding to EphB1-Fc; also recorded: reduces the ability of soluble EB2-His to bind to immobilized EphB1-Fc”, the “DH neuron activation” value [1] was “significantly fewer labeled neurons in the injured side; also recorded: dramatically reduced DH neuron activation” and the inhibition at 1 µM (EphrinB3-EphB2; EB3-EphB2, A20, read-out: reduction of tetramers) was about 45%. The IC (maximum) (EphrinB3-EphB2; read-out: concentration producing maximum inhibition) was 1 µM and the “cytotoxicity” value [2] was “not toxic”.
